Test results published in article PMC11360041 (ACS Omega, 2024).

What was measured:
[1] = test system: Fusarium oxysporium f. sp. cucumeris; format: cell-based; settings: read-out: Inhibition rate, Fc
Physalospora piricola = format: cell-based; settings: read-out: Inhibition rate, Pp, 50 mg/L, Physalospora piricola
watermelon anthracnose = assay: organism not typed; format: cell-based; settings: read-out: Inhibition rate, Wa
Fusarium graminearum = assay: microbe, parasite or virus in culture; format: cell-based; settings: read-out: Inhibition rate, Fg
Phytophthora capsici = format: cell-based; settings: read-out: Inhibition rate, Pc
Bipolaris maydis = format: cell-based; settings: read-out: Inhibition rate, Bm
Rhizoctonia solani = format: cell-based; settings: read-out: Inhibition rate, Rs
Botrytis cinerea = format: cell-based; settings: read-out: Inhibition rate, Bc
Alternaria solani = format: cell-based; settings: read-out: Inhibition rate, As
TMV [2] = assay: Inactivation effect of compounds against TMV in vivo; design: species or system tobacco mosaic virus; settings: Tobacco mosaic virus, read-out: relative inhibition rate (%) inactive effect
Sclerotinia sclerotiorum = format: cell-based; settings: read-out: Inhibition rate, Ss
TMV [3] = assay: Curative effect of compounds against TMV in vivo; settings: Tobacco mosaic virus, read-out: relative inhibition rate (%) curative effect
TMV [4] = assay: Protective effect of compounds against TMV in vivo; design: species or system tobacco mosaic virus; settings: Tobacco mosaic virus, read-out: relative inhibition rate (%) protective effect

Row | SMILES | inhibition at 50 µg/mL [1] [%] | inhibition at 50 µg/mL (Physalospora piricola) [%] | inhibition at 50 µg/mL (watermelon anthracnose) [%] | inhibition at 50 µg/mL (Fusarium graminearum) [%] | inhibition at 50 µg/mL (Phytophthora capsici) [%] | inhibition at 50 µg/mL (Bipolaris maydis) [%] | inhibition at 50 µg/mL (Rhizoctonia solani) [%] | inhibition at 50 µg/mL (Botrytis cinerea) [%] | inhibition at 50 µg/mL (Alternaria solani) [%] | inhibition at 100 µg/mL (TMV [2]) [%] | inhibition at 500 µg/mL (TMV [2]) [%] | inhibition at 50 µg/mL (Sclerotinia sclerotiorum) [%] | inhibition at 100 µg/mL (TMV [3]) [%] | inhibition at 500 µg/mL (TMV [3]) [%] | inhibition at 100 µg/mL (TMV [4]) [%] | inhibition at 500 µg/mL (TMV [4]) [%]
1 | O=C(Cn1ccc(=O)c2ccccc21)NN=Cc1ccc(Br)cc1 [Compound 14] | 22.4 ± 1.3 | 32.4 ± 2.3 | 18.6 ± 1.7 | 2.4 ± 0.6 | 21.4 ± 1.8 | 4.4 ± 0.6 | 1.8 ± 0.7 | 20.8 ± 2.1 | 23.1 ± 1.5 | 0 | 31.7 ± 2.5 | 2.4 ± 0.4 |  |  |  | 
2 | CSc1ccc(C=NNC(=O)Cn2ccc(=O)c3ccccc32)cc1 [Compound 10] | 12.2 ± 1.3 | 58.8 ± 3.2 | 14 ± 1.7 | 2.4 ± 0.6 | 23.8 ± 1.6 | 13.3 ± 0.9 | 3.6 ± 1.1 | 14.6 ± 1.2 | 30.8 ± 2.1 | 0 | 15.4 ± 2 | 7.3 ± 1.4 |  |  |  | 
3 | O=C(Cn1ccc(=O)c2ccccc21)NN=Cc1cccs1 [Compound 21] | 12.2 ± 1.6 | 76.5 ± 2.7 | 14 ± 0.7 | 9.5 ± 1.4 | 26.2 ± 2.3 | 17.8 ± 1.2 | 35.7 ± 1.5 | 31.3 ± 2.1 | 38.5 ± 1.3 | 0 | 12.3 ± 1.7 | 17.1 ± 1.7 |  |  |  | 
4 | O=C(Cn1ccc(=O)c2ccccc21)NN=Cc1ccccc1[N+](=O)[O-] [Compound 16] | 18.4 ± 1.3 |  | 23.3 ± 1.6 | 23.8 ± 1.7 | 14.3 ± 0.7 | 13.3 ± 1.5 | 35.7 ± 1.5 | 20.8 ± 1.2 | 30.8 ± 1.4 | 0 | 14.6 ± 4 | 24.4 ± 1.1 |  |  |  | 
5 | COc1ccc(C=NNC(=O)Cn2ccc(=O)c3ccccc32)cc1OC [Compound 5] | 16.3 ± 1.3 | 22.1 ± 1.5 | 16.3 ± 1.2 | 14.3 ± 1.5 | 14.3 ± 0.9 | 11.1 ± 0.7 | 12.5 ± 1.4 | 18.8 ± 1.9 | 30.8 ± 2.1 | 0 | 11.3 ± 3.2 | 24.4 ± 1.1 |  |  |  | 
6 | NNC(=O)Cn1ccc(=O)c2ccccc21 [C, (4-Oxo-4H-quinolin-1-yl)-acetic Acid Hydrazide] |  |  |  |  |  |  |  |  |  | 17.2 ± 1.1 | 45.9 ± 3.3 |  | 8.2 ± 0.5 | 31.5 ± 2 | 11.4 ± 2.9 | 47.8 ± 4.8
7 | O=C(Cn1ccc(=O)c2ccccc21)NN=Cc1cscn1 [Compound 22] | 12.2 ± 1.6 | 32.4 ± 1.3 | 14 ± 1.7 | 2.4 ± 0.5 | 26.2 ± 1.5 | 8.9 ± 0.8 | 26.8 ± 1.1 | 25 ± 2.1 | 7.7 ± 1.2 | 0 | 23.9 ± 1.1 | 7.3 ± 0.9 |  |  |  | 
8 | O=C(Cn1ccc(=O)c2ccccc21)NN=Cc1ccccc1 [Compound 1] | 22.4 ± 1.9 | 16.2 ± 0.5 | 16.3 ± 1.3 | 14.3 ± 1.2 | 21.4 ± 1.1 | 15.6 ± 1.7 | 14.3 ± 1.3 | 33.3 ± 1.6 | 30.8 ± 2.3 | 0 | 29.3 ± 1.4 | 19.5 ± 0.7 |  |  |  | 
9 | O=C(Cn1ccc(=O)c2ccccc21)NN=Cc1cccnc1 [Compound 19] | 26.5 ± 0.7 | 44.1 ± 2.8 | 46.5 ± 1.3 | 26.2 ± 0.9 | 14.3 ± 1.2 | 46.7 ± 1.1 | 26.8 ± 1.4 | 20.8 ± 0.9 | 46.2 ± 2.2 | 0 | 20.5 ± 3.6 | 36.6 ± 1.6 |  |  |  | 
10 | O=C(Cn1ccc(=O)c2ccccc21)NN=Cc1ccc([N+](=O)[O-])cc1 [Compound 15] | 24.5 ± 1.6 | 72.1 ± 2.6 | 34.9 ± 1.5 | 7.1 ± 1.3 | 14.3 ± 0.6 | 40 ± 1.3 | 17.9 ± 1.3 | 27.1 ± 2.4 | 30.8 ± 1.1 | 0 | 16.1 ± 4.8 | 12.2 ± 1.4 |  |  |  | 
11 | CN(C)c1ccc(C=NNC(=O)Cn2ccc(=O)c3ccccc32)cc1 [Compound 8] | 16.3 ± 1.6 | 29.4 ± 2.3 | 16.3 ± 1.7 | 23.8 ± 1.9 | 14.3 ± 1.8 | 13.3 ± 1.4 | 35.7 ± 2.1 | 25 ± 1.2 | 30.8 ± 2.3 | 0 | 28.1 ± 1.3 | 12.2 ± 1.3 |  |  |  | 
12 | O=C(Cn1ccc(=O)c2ccccc21)NN=Cc1ccco1 [Compound 20] | 16.3 ± 2 | 39.7 ± 1.3 | 16.3 ± 1.6 | 14.3 ± 1.4 | 14.3 ± 1.1 | 20 ± 1.1 | 35.7 ± 1.8 | 20.8 ± 1.3 | 38.5 ± 0.5 | 0 | 29.7 ± 3.6 | 36.6 ± 1.7 |  |  |  | 
13 | N#Cc1c(Cl)c(Cl)c(Cl)c(C#N)c1Cl [chlorothalonil, reference compound] | 100 | 91 ± 1.3 | 100 | 73 ± 0.9 | 73 ± 1.3 | 86 ± 1.2 | < 50 | 100 | 100 |  |  | < 50 |  |  |  | 
14 | COC(=O)Nc1nc2ccccc2[nH]1 [carbendazim, reference compound] |  | 96 ± 1.2 | 100 | 29 ± 1.7 |  |  | 100 | 86 ± 1.4 | 98 ± 1.4 |  |  | 100 |  |  |  | 
15 | O=C(Cn1ccc(=O)c2ccccc21)NN=Cc1ccc(F)cc1 [Compound 12] | 16.3 ± 1.5 |  | 16.3 ± 1.6 | 21.4 ± 1.4 | 14.3 ± 1.6 | 15.6 ± 1.7 | 32.1 ± 2.1 | 25 ± 1.4 | 23.1 ± 1.1 | 0 | 27.4 ± 3.9 | 7.3 ± 1.2 |  |  |  | 
16 | O=C(Cn1ccc(=O)c2ccccc21)NN=Cc1ccc(-n2cccn2)cc1 [Compound 9] | 18.4 ± 0.7 | 27.9 ± 1.2 | 14 ± 1.5 | 9.5 ± 0.5 | 14.3 ± 1.1 | 15.6 ± 2.1 | 35.7 ± 2.2 | 25 ± 1.5 | 38.5 ± 1.3 | 5.1 ± 0.8 | 38.1 ± 3.2 | 12.2 ± 1.8 |  |  |  | 
17 | CC(C)(C)c1ccc(C=NNC(=O)Cn2ccc(=O)c3ccccc32)cc1 [Compound 3] | 10.2 ± 1.6 | 35.3 ± 2.1 | 16.3 ± 1.3 | 16.7 ± 1.3 | 23.8 ± 1.5 | 8.9 ± 0.7 | 17.9 ± 1.8 | 29.2 ± 1.7 | 30.8 ± 2.3 | 0 | 24.1 ± 1 | 22 ± 1.9 |  |  |  | 
18 | Cc1ccc(C=NNC(=O)Cn2ccc(=O)c3ccccc32)cc1 [Compound 2] | 28.6 ± 2.3 | 17.6 ± 1.4 | 14 ± 1.3 | 14.3 ± 1.3 | 26.2 ± 1.8 | 11.1 ± 2.1 | 17.9 ± 1.7 | 25 ± 1.5 | 30.8 ± 1.6 | 0 | 26.7 ± 3 | 12.2 ± 1.2 |  |  |  | 
19 | O=C(Cn1ccc(=O)c2ccccc21)NN=Cc1coc2ccccc12 [Compound 24] | 22.4 ± 1.2 | 17.6 ± 1.2 | 9.3 ± 0.7 | 19 ± 1.2 | 19 ± 0.9 | 11.1 ± 1.8 | 17.9 ± 1.5 | 20.8 ± 1.5 | 23.1 ± 1.3 | 0 | 33.5 ± 0.6 | 12.2 ± 0.5 |  |  |  | 
20 | CCOC(=O)Cn1ccc(=O)c2ccccc21 [Compound B, (4-Oxo-4H-quinolin-1-yl)-acetic Acid Ethyl Ester] |  |  |  |  |  |  |  |  |  | 0 | 32.1 ± 1.6 |  |  |  |  | 
21 | O=C(Cn1ccc(=O)c2ccccc21)NN=Cc1ccc(Cl)cc1 [Compound 13] | 24.5 ± 1.3 | 17.6 ± 1.5 | 27.9 ± 2.3 | 2.4 ± 0.9 | 14.3 ± 1.3 | 8.9 ± 0.7 | 12.5 ± 1.4 | 14.6 ± 1.3 | 30.8 ± 1.3 | 0 | 18.6 ± 0.7 | 7.3 ± 0.5 |  |  |  | 
